The results in this text go back to patent US10188690B2, “Use of Kaempferia parviflora wall. ex. baker extracts or flavone compound for preventing or treating muscle diseases, or improving muscle function” (AAT COSTECH CO., LTD., priority 2012, dated 2019).

The test system of one experiment is Wistar rats. In words: Muscle mass in the TNF-α-induced myatrophy animal model. Type of experiment: in vivo. The note with it: once daily for eight weeks, extract 500 mg/kg, flavones 300 mg/kg; for Calf muscle weight: TNF-α 100 ng/g for two weeks, TNF-α control 437 mg; for muscle weight compared to the control levels: TNF-α-induced myatrophy, p<0.01. Here is the method:
Five-week-old Wistar rats were acclimated for one week and myatrophy was induced by supplying TNF-α at the dose of 100 ng/g for two weeks. Afterwards, rats were randomly divided according to body weight into a total of 4 groups, each consisting of 8 rats. Each of the Kaempferia parviflora extract and flavone compounds was suspended in 0.25% carboxymethylcellulose and administered once daily for eight weeks at the dose of 500 mg/kg body weight for the Kaempferia parviflora extract, 300 mg/kg body weight for each of 5,7-dimethoxyflavone, 5,7,4′-trimethoxyflavone and 3,5,7,3′,4′-pentamethoxyflavone. The control group was administered with the same amount of 0.25% carboxymethylcellulose only as well as TNF-α.
After eight weeks of treatments, calf muscles were dissected out and weighed using microbalance (Mettler PE160, USA).

The subject of a further experiment is atrogin-1. Put plainly: RT-PCR of atrogin-1 mRNA in differentiated L6 cells treated with TNF-α. The class given is cell-based. The conditions noted are these: TNF-α 24 hours, then 5,7-dimethoxyflavone 1 or 5 μM, normalized by β-actin, FIG. 1. As for the experimental part: (§1) Muscle cell-line L6 myoblast (American Type Culture Collection, Manassas, Va., USA) was cultured in DMEM (10% FBS, 100 U/mL penicillin, 100 µg/mL streptomycin). When the cell density reached approximately 80˜85%, differentiation was induced for six days by replacing the culture medium with DMEM growth medium supplemented with 2% FBS for further experiments. In order to evoke muscle reduction in the differentiated L6 cells, cells were treated with TNF-α for 24 hours followed by the treatment with 5,7-dimethoxyflavone prepared in Example 2-1 at different concentrations (1 or 5 μM). RT-PCR experiments were performed to examine the expression levels of atrogin-1 and MuRF1, major ligases involved in protein catabolism in the muscles. Total RNA was obtained from the differentiated cells using Trizol (Invitrogen, Carlsbad, Calif., USA) and subjected to reverse transcription as follows. Total RNA isolated as above was reverse-transcribed using reverse transcriptases. The following primers were used for RT-PCR experiments.
(§2) Relative levels of mRNA for each gene was normalized by the value of β-actin.

A further experiment deals with MuRF1. Put plainly: RT-PCR of MuRF1 mRNA in differentiated L6 cells treated with TNF-α. Type of experiment: cell-based. The conditions noted are these: TNF-α 24 hours, then 5,7-dimethoxyflavone 1 or 5 μM, normalized by β-actin, FIG. 1. As for the experimental part: as §1, §2
The test system of a further experiment is myogenin. Put plainly: RT-PCR of myogenin mRNA in differentiated L6 cells. The note with it: 5,7-dimethoxyflavone 1 or 5 μM (FIG. 2), extract 1 or 10 μg/ml (FIG. 4), normalized by β-actin. Type of experiment: cell-based.
In another experiment the test system is myoD. Put plainly: RT-PCR of myoD mRNA in differentiated L6 cells. The class given is cell-based. The conditions noted are these: 5,7-dimethoxyflavone 1 or 5 μM (FIG. 2), extract 1 or 10 μg/ml (FIG. 4), normalized by β-actin.
A further experiment concerns PI3K. In words: Western blot of PI3K protein in L6 cells. Type of experiment: cell-based. The note with it: 5,7-dimethoxyflavone 1 or 5 μM (FIG. 3), extract 1 or 10 μg/ml (FIG. 5). As for the experimental part:
as §1
(§3) L6 cells were treated in the same manner as Experimental example 1, and were lysed with RIPA buffered solution containing a proteinase inhibitor cocktail. […] Protein bands were visualized using ECL western blotting detected reagents (Amersham, Tokyo, Japan). […]
Background: In western blotting, separated proteins are transferred to a membrane and probed.

The test system of the next experiment is p-Akt. Put plainly: Western blot of p-Akt protein in L6 cells. Type of experiment: cell-based. The conditions noted are these: 5,7-dimethoxyflavone 1 or 5 μM (FIG. 3), extract 1 or 10 μg/ml (FIG. 5). As for the experimental part: as §1, §3
Another experiment deals with p-mTOR. In words: Western blot of p-mTOR protein in L6 cells. The class given is cell-based. The note with it: 5,7-dimethoxyflavone 1 or 5 μM (FIG. 3), extract 1 or 10 μg/ml (FIG. 5). As for the experimental part:
as §1, §3

With `COc1cc(OC)c2c(=O)c(OC)c(-c3ccc(OC)c(OC)c3)oc2c1` [3,5,7,3′,4′-pentamethoxyflavone], in the experiment on Wistar rats, the “Calf muscle weight” value is 528 mg and the “muscle weight compared to the control levels” value is 120%.

Take `COc1ccc(-c2cc(=O)c3c(OC)cc(OC)cc3o2)cc1` [5,7,4′-trimethoxyflavone]: in the experiment with Wistar rats, the “Calf muscle weight” value stood at 519 mg and the “muscle weight compared to the control levels” value is recorded as 118%.

For `COc1cc(OC)c2c(=O)cc(-c3ccccc3)oc2c1` [5,7-dimethoxyflavone], in the experiment on atrogin-1, the “mRNA level of atrogin-1” value is reported as “reduces”. Further, in the experiment on MuRF1, the “mRNA level of MuRF1” value is reported as “reduces”. In addition, in the experiment with myogenin, the “mRNA level of myogenin” value is given as “increases”. Also, the “mRNA level of myoD” value with myoD is given as “increases”. In the experiment on PI3K, the “protein level of PI3K” value is on record as “upregulate”. Moreover, the “protein level of p-AKT” value in the experiment with p-Akt was “upregulate”. Also, in the experiment on p-mTOR, the “protein level of p-mTOR” value was “upregulate”. In the experiment on Wistar rats, the “Calf muscle weight” value worked out at 551 mg and the “muscle weight compared to the control levels” value stood at 126%.
